Experimental data as given in patent publication US9833446B2, “Hedgehog pathway inhibition for cartilage tumor and metachondromatosis treatment” (Rhode Island Hospital, priority 2012, dated 2017).
Entries after “also recorded” stand apart in the source; their conditions may differ.

Key:
ATDC5 cells = experiment: q-PCR of Ihh and Pthrp expression in inhibitor-treated parental ATDC5 cells; format: cell-based, murine; details: PD173074 10 nM, UO126 1 μM, n=3, p<0.05
Excerpt: (§1) FIG. 4a, Left panel, is a bar graph of qPCR results showing increased Col2α1, Col10α1, Ihh, and Pthrp expression in laser-captured cartilaginous cells from exostoses, compared with normal articular cartilage cells (n=4, *p<0.05, Student t test). FIG. 4a, Right panel, is a series of photomicrographs showing immunostaining of paraffin sections from Perichondrial Groove of Ranvier region of Ctsk-KO and Control mice. Note the decreased number of p-Erk+ cells, but increased Ihh expression in Ctsk-KO, compared with Control, mice. FIG. 4b, Left Panel, is a photograph of an immunoblot showing Shp2 levels in ATDC5 chondroprogenitor cell lines stably expressing shRNAs against murine Ptpn11 (ATDC5-KD1, ATDC5-KD2, respectively) or a scrambled control hairpin. […] FIG. 4c is a bar graph showing that FGFR (PD173074, 10 nM) or MEK (UO126, 1 μM) inhibitor treatment of parental ATDC5 cells enhances Ihh and Pthrp expression, as shown by q-PCR (n=3, *p<0.05, Student t test). […] Images of representative posterior paws (i-iv) and knese (v-vii) taken pre-treatment (i, iii, v, vii) and post-treatment with vehicle (ii, vi) or Smoothened inhibitor (SMOi) (iv, viii) for 4 weeks. Note continued development of exostoses and endochromas in Vehicle-treated mice, and their amelioration in SMOi-treated group (arrows). Also, see FIGS. 7a,b and 8a,b.
Parental ATDC5 cells were purchased from the ATCC and cultured in complete DMEM/F12 medium (1:1) (Invitrogen) as described46. ATDC5 cells stably expressing short hairpin RNAs against murine Shp2 • (oligoA:5′[…] TCTGAATCTT TTTGGAAA (SEQ ID NO:1)); • Oligo B: 5-[…] (SEQ ID NO:2)) or its scrambled control were established by using pSuper(retro)/puro retroviral vector (Oligoengine, Inc) and pEcopac.
(§2) Quantitative RT-PCR. RNA was extracted from cultured cells or cartilage lesions captured by laser dissection by using the RNeasy kit (Qiagen). cDNA was synthesized using iScript™cDNA Synthesis Kit (Bio-Rad) and q-PCR was performed by using the RT2SYBR®Green qPCR kit. All values were normalized to Gapdh levels, and qPCR data are expressed as fold-increases compared with controls.
CCPs are rare, rendering detailed biochemical analyses of these cells unfeasible. We therefore tested the effects of Shp2 depletion in ATDC5 chondroid cells by stably expressing either of two shRNAs directed against murine Ptpn11. As in Ctsk-KO mice (FIG. 4a), Fgf18-evoked Erk activation was decreased, while Ihh and Pthrp levels were increased, in Shp2 deficient-ATDC5 cells, compared with cells expressing an shRNA control (FIG. 4b). Conversely, FGFR (PD173074) or MEK (UO126) inhibitor treatment of randomly growing, parental ATDC5 cells led to enhanced Ihh and Pthrp expression (FIG. 4c).

Ctsk-KO mice = experiment: Smoothened inhibitor treatment of Ctsk-KO mice (metachondromatosis model), X-ray, μ-CT and histology; format: in vivo; details: for number of exostoses / size of exostoses: vs vehicle; for cartilage tumor condition / disease process in Shp2 mutant mice: systemic administration
Excerpt: as §1
All animals used for these experiments are shown. […] SMOi was administered by oral gavage to Ctsk-KO mice beginning at post-natal week 5 for four weeks, and mice were euthanized at week 9.
Microcomputed Tomography (μ-CT) and x-Ray Analysis. X-ray images of the entire skeleton, knees, metatarsals and phalanges were obtained immediately after euthanasia by using a Faxitron X-ray system (Wheeling, Ill.). After fixation in 4% PFA, μ-CT images of skeletal tissues were scanned with the desktop microcomputer graphic imaging system (μ-CT40, Scanco Medical AG, CH). The number and size of exostoses were measured visually based on x-ray images.
Ihh signaling leads to Pthrp production. […] If so, then blocking or attenuating Ihh signaling might slow and/or prevent MC development. To test this hypothesis, Control (wild type) and Ctsk-KO mice (5/group) were treated with the Smoothened inhibitor PF-04449913 (100 μg/g body weight) or vehicle control (0.5% methylcellulose) by daily gavage, beginning at 5 weeks of age and continuing for the succeeding 4 weeks. The skeletal phenotype was examined by X-ray, μ-CT, and histological analysis at the end of experiment.

Hedgehog pathway = experiment: qPCR of epiphyseal cartilage after oral Smoothened inhibitor in wild type mice; format: in vivo; details: oral administration for 1 week, n=3, p<0.05
Excerpt: FIG. 8a is a series of charts showing number and size of exostoses in Ctsk-KO mice post-treatment (n=5) with vehicle or Smoothened inhibitor (SMOi). […] FIG. 8b is a bar graph of qPCR results showing that oral administration of the Smoothened inhibitor SMOi to wild type mice for 1 week blunts the expression of Col2α1, Col10α1, Mmp13 and Gli1 in epiphyseal cartilage (n=3, *p<0.05, student t test).
as §2

[1] = Ctsk-KO mice, 100 μg/g body weight, daily gavage, 4 weeks
[2] = Ctsk-KO mice, 100 μg/g body weight, daily gavage, 4 weeks, listed as SMOi

Row | Structure (SMILES) | Ihh expression (q-PCR) (ATDC5 cells) | Pthrp expression (q-PCR) (ATDC5 cells) | function of multiple joints (Ctsk-KO mice; [1]) | tumor formation (Faxitron radiographs) (Ctsk-KO mice; Ctsk-KO mice, 100 μg/g body weight, daily gavage, 4 weeks from week 5, vs vehicle (0.5% methylcellulose)) | number of exostoses (Ctsk-KO mice; [1]) | size of exostoses (Ctsk-KO mice; [1]) | number of exostoses (Ctsk-KO mice; [2]) | size of exostoses (Ctsk-KO mice; [2]) | cartilage tumor condition / disease process in Shp2 mutant mice (Ctsk-KO mice) | cartilage tumor condition / disease process in Shp2 mutant mice (Ctsk-KO mice; listed as PF-0444993) | expression of Col2α1 in epiphyseal cartilage (qPCR) (Hedgehog pathway) | expression of Col10α1 in epiphyseal cartilage (qPCR) (Hedgehog pathway) | expression of Gli1 in epiphyseal cartilage (qPCR) (Hedgehog pathway) | expression of Mmp13 in epiphyseal cartilage (qPCR) (Hedgehog pathway)
1 | CCN(CC)CCCCNc1ncc2cc(-c3cc(OC)cc(OC)c3)c(NC(=O)NC(C)(C)C)nc2n1 [PD173074] | enhanced | enhanced |  |  |  |  |  |  |  |  |  |  |  | 
2 | CN1CC[C@@H](NC(=O)Nc2ccc(C#N)cc2)C[C@@H]1c1nc2ccccc2[nH]1 [PF-04449913] |  |  | improved | ameliorates tumor formation | significantly reduced | significantly reduced | reduction of number; also recorded: decrease in average number of exostoses | reduction of number and size | reduces the cartilage tumor condition | can stop or slow down the disease process | blunts | blunts | blunts | blunts
3 | N#CC(=C(/N)Sc1ccccc1N)/C(C#N)=C(/N)Sc1ccccc1N [UO126] | enhanced | enhanced |  |  |  |  |  |  |  |  |  |  |  | 
